The data set is described as follows: Emulsification test after simulated long term storage at 50° C. (Testing Example 6). In kind it is physicochemical. Conditions: for re-emulsification compared with composition with no biocide: after storage at 50° C. for 32 and 70 days. Here is the method:
Where required, solutions were preheated to aid in dissolution of surfactants. Once the various components had been dissolved into solution, final oil-in-water emulsion composition were blended using high shear mixing (Polytron, Brinkmann Instruments). For solutions containing monomeric surfactants, solutions were subjected to high shear mixing for 5 minutes, while solutions containing polymeric surfactants were subjected to high shear mixing for 15 minutes. Once blending was completed, samples were assessed for quality of emulsification and then placed at 50° C. for up to 70 days, with additional assessments occurring at different time points throughout the storage period. Quality of emulsification was assessed using the method described below. Samples were placed at 50° C. to accelerate storage stability testing, as 4 weeks at 50° C. is representative of 2 years at ambient temperature (CIPAC MT 46.3). The following method was used to evaluate the tested emulsions. The method was performed using a 100 mL graduated cylinder and a pipette (capable of measuring at least 1 mL). The oil-in-water emulsion compositions evaluated in this example were tested as follows: • 1. If ready-to-use spray oil solutions were under storage conditions (e.g., storage for two weeks at 54° C.), the solution was shaken to allow the contents to re-emulsify. • 2. A graduated cylinder was filled with 100 mL of an oil-in-water emulsion composition, and the amount was adjusted as necessary using a pipette. The test solution was allowed to sit for 15 minutes to permit the emulsion to break and to let the majority of the foam generated in step 1 (FIG. 1A) to disappear before moving to step 3. […] The foam should be allowed to settle before inverting cylinders. Even with inversion of cylinders (vs. shaking), some foaming can occur (FIG. 1(B)). • 3. A stopper was placed on the graduated cylinder and the graduated cylinder was inverted 10 times. It was important to invert and not shake the cylinder to prevent excess foaming. • 4. […] Rating were based on the following scale (1-10). […] Specifically, FIG. 2 is an example of an oil-in-water emulsion composition with a rating of 10 (best) at five minutes after inversion. The solution is a homogeneous, milky emulsion (left) and lacks an oil layer or creaming on the surface (right). […] The solution is a homogeneous, milky emulsion (left), but with creaming and some oil coalescence on surface (right). Finally, FIG. 4 is an example of an oil-in-water emulsion composition with a rating of 1 (worst) at five minutes after inversion. The solution has a cloudy appearance, lacks a homogeneous, milky emulsion (left), and has a layer of large, coalesced oil deposits at the surface of the solution (right). The figures were used in the examples described herein as a reference only.

Where [1] appears, read: Base oil Group III, Alcohol ethoxylate/alkyl glyceride, 70 days of storage (50° C.), 10 = best, 1 = worst.

As to `O=C(O)c1ccccc1` [Benzoic acid, benzoic acid], the “re-emulsification compared with composition with no biocide” value is reported as “improved re-emulsification”. The “Emulsion Rating (1-10)” value (Base oil Group I, Alcohol ethoxylate/alkyl glyceride, 70 days of storage (50° C.)) is listed as 6. Besides, under “Base oil Group II, Alcohol ethoxylate/alkyl glyceride, 70 days of storage (50° C.)”, the “Emulsion Rating (1-10)” value is 7. In addition, under setting [1], the “Emulsion Rating (1-10)” value is reported as 7. Moreover, under “Base oil Group III, Alkyl polysaccharide, 27 days of storage (50° C.)”, the “Emulsion Rating (1-10)” value was 8. Further, the “Emulsion Rating (1-10)” value (Base oil Group III, Block copolymer, 27 days of storage (50° C.)) is on record as 8. The “Emulsion Rating (1-10)” value (Base oil Group III, Polyoxyethylene amine quarternary/alkyl glyceride, 27 days of storage (50° C.)) was 4. In addition, the “Emulsion Rating (1-10)” value (Base oil Group III, Random polymeric/Block copolymer, 64 days of storage (50° C.)) is recorded as 5. Moreover, the “Emulsion Rating (1-10)” value (Base oil Group IV, Alcohol ethoxylate/alkyl glyceride, 70 days of storage (50° C.)) is on record as 6. The “effect on re-emulsification, single surfactant” value (from here on “effect … single surfactant”) (alcohol ethoxylate, amine alkybenzenesulfonate (anionic), polyoxyethylene amine quarternary (cationic) or polyethylene glycol) is reported as “no impact”. Further, the “effect … single surfactant” value (alkyl glyceride, random polymeric, sorbitan monooleate, sorbitan fatty acid ester, or dodecyl phenol) is “negatively affected”. Also, where the note is “block copolymer or alkyl polysaccharide surfactant”, the “effect … single surfactant” value is listed as “improved re-emulsification”. Besides, the “effect on re-emulsification, surfactant pairs” value (shortened to “effect … surfactant pairs”) (dodecyl phenol + alcohol ethoxylate, alcohol ethoxylate + amine alkylbenzenesulfonate (anionic), sorbitan monooleate + polyoxyethylene (20) sorbitan monooleate) is reported as “no impact”. Moreover, the “re-emulsification compared with compositions without benzoic acid” value (group I, group II, group III, and group IV (poly-alpha-olefins) base oils) is given as “improved re-emulsification”. The “effect … surfactant pairs” value (polyethylene glycol monostearate + alkyl glyceride, alkyl polysaccharide + alkyl glyceride) is “negatively affected”. In addition, where the note is “random polymeric + block copolymer (64 days), polyoxyethylene amine quarternary + alkyl glyceride (27 days), alcohol ethoxylate + alkyl glyceride (70 days), 50° C.”, the “effect … surfactant pairs” value is listed as “improved re-emulsification”.
Regarding `COC(=O)c1ccc(O)cc1` [Methyl paraben, methyl paraben], the “re-emulsification compared with composition with no biocide” value is reported as “improved re-emulsification”. Also, under setting [1], the “Emulsion Rating (1-10)” value is given as 5.
For the compound `CCCOC(=O)c1ccc(O)cc1` [Propyl paraben, propyl paraben], the “re-emulsification compared with composition with no biocide” value is recorded as “improved re-emulsification”. Besides, the “Emulsion Rating (1-10)” value under setting [1] is 5.
As to `O=C([O-])c1ccccc1.[Na+]` [Sodium benzoate, sodium benzoate], the “re-emulsification compared with composition with no biocide” value is recorded as “improved re-emulsification”. In addition, the “Emulsion Rating (1-10)” value under setting [1] is 6.
Regarding `C/C=C/C=C/C(=O)O` [sorbic acid, reference compound], the “re-emulsification compared with composition with no biocide” value is “comparable or worse emulsification quality”.
